From ChEMBL document CHEMBL1201862, “PubChem BioAssay data set” (2004)
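These data come from cells grown in 96-well plates and exposed to compound for 48 hours at five concentrations. GI50 marks 50% less growth.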 The source made the active and inactive calls. No stated cut-off is given here; in the data, active = GI50 up to about 1.1 µM and inactive = higher.

Experiments:
Experiment in all cases: NCI tumour cell line growth inhibition, 48 h
786-0 = tested on: 786-0
ACHN = tested on: ACHN
HCT-116 = tested on: HCT-116
HCT-15 = tested on: HCT-15
HL-60 = tested on: HL-60
HOP-92 = tested on: HOP-92
KM12 = tested on: KM12
M14 = tested on: M14
MDA-MB-435 = tested on: MDA-MB-435
Malme-3M = tested on: Malme-3M
OVCAR-5 = tested on: OVCAR-5
SF-268 = tested on: SF-268
SF-295 = tested on: SF-295
SK-MEL-5 = tested on: SK-MEL-5
SNB-75 = tested on: SNB-75
SR = tested on: SR
U-251 = tested on: U-251
BT-549 = tested on: BT-549
SF-539 = tested on: SF-539
T47D = tested on: T47D

**Q.** With `CSC1=N/C(=C\c2ccccc2)C(=O)N1CN1CCOCC1` as the compound, how does the GI50 (786-0) read?
**A.** 41.1 µM (inactive)

**Q.** And the GI50 (ACHN)?
**A.** 38.9 µM (inactive)

**Q.** What about the GI50 (HCT-116) of the same compound?
**A.** 39.4 µM (inactive)

**Q.** What about the GI50 (HCT-15) of the same compound?
**A.** 33.3 µM

**Q.** What about the GI50 (HL-60) of the same compound?
**A.** 54.6 µM (inactive)

**Q.** What about the GI50 (HOP-92) of the same compound?
**A.** > 100 µM (inactive)

**Q.** What about the GI50 (KM12) of the same compound?
**A.** 93.5 µM (inactive)

**Q.** What about the GI50 (M14) of the same compound?
**A.** 91.8 µM (inactive)

**Q.** And the GI50 (MDA-MB-435)?
**A.** 93.8 µM (inactive)

**Q.** What about the GI50 (Malme-3M) of the same compound?
**A.** 57.3 µM (inactive)

**Q.** And the GI50 (OVCAR-5)?
**A.** > 100 µM (inactive)

**Q.** And the GI50 (SF-268)?
**A.** 61.5 µM (inactive)

**Q.** What about the GI50 (SF-295) of the same compound?
**A.** > 100 µM (inactive)

**Q.** And the GI50 (SK-MEL-5)?
**A.** 50.5 µM (inactive)

**Q.** And the GI50 (SNB-75)?
**A.** 69.2 µM (inactive)

**Q.** And the GI50 (SR)?
**A.** 43.6 µM (inactive)

**Q.** And the GI50 (U-251)?
**A.** 64.4 µM (inactive)

**Q.** `CCN1C(=O)C(=C/C=C/c2ccc([N+](=O)[O-])cc2)C(=O)N(CC)C1=S` was tested. Which GI50 (786-0) did it give?
**A.** 18.6 µM (inactive)

**Q.** What about the GI50 (ACHN) of the same compound?
**A.** 18.1 µM (inactive)

**Q.** What about the GI50 (BT-549) of the same compound?
**A.** 16.5 µM (inactive)

**Q.** And the GI50 (HCT-116)?
**A.** 17.6 µM (inactive)

**Q.** And the GI50 (HCT-15)?
**A.** 29.5 µM

**Q.** What about the GI50 (HL-60) of the same compound?
**A.** 82.6 µM (inactive)

**Q.** And the GI50 (HOP-92)?
**A.** 18.3 µM (inactive)

**Q.** What about the GI50 (KM12) of the same compound?
**A.** 22.3 µM (inactive)

**Q.** What about the GI50 (M14) of the same compound?
**A.** 29 µM (inactive)

**Q.** And the GI50 (MDA-MB-435)?
**A.** 23.4 µM (inactive)

**Q.** What about the GI50 (OVCAR-5) of the same compound?
**A.** > 100 µM (inactive)

**Q.** And the GI50 (SF-268)?
**A.** 19.3 µM (inactive)

**Q.** And the GI50 (SF-295)?
**A.** > 100 µM (inactive)

**Q.** And the GI50 (SF-539)?
**A.** 21.2 µM (inactive)

**Q.** And the GI50 (SK-MEL-5)?
**A.** 20.8 µM (inactive)

**Q.** What about the GI50 (T47D) of the same compound?
**A.** > 100 µM (inactive)

**Q.** What about the GI50 (U-251) of the same compound?
**A.** 18.5 µM (inactive)

**Q.** Which results are given for `Cc1cccc(N2C(=O)C3c4[nH]c5ccccc5c4C4CCC(C(C)(C)C)CC4C3C2=O)c1C` (stereo not drawn)?
**A.** GI50 (786-0): 38.7 µM (inactive); GI50 (ACHN): > 100 µM (inactive); GI50 (BT-549): > 100 µM (inactive); GI50 (HCT-116): 28.7 µM (inactive); GI50 (HCT-15): > 100 µM; GI50 (HL-60): 16.9 µM (inactive); GI50 (HOP-92): > 100 µM (inactive); GI50 (M14): > 100 µM (inactive); GI50 (MDA-MB-435): > 100 µM (inactive); GI50 (Malme-3M): > 100 µM (inactive); GI50 (OVCAR-5): > 100 µM (inactive); GI50 (SF-295): > 100 µM (inactive); GI50 (SF-539): 75.9 µM (inactive); GI50 (SK-MEL-5): > 100 µM (inactive); GI50 (SR): > 100 µM (inactive); GI50 (U-251): 28.2 µM (inactive)

**Q.** For `CC(C)C1/C(=N/O)CC(c2ccccc2)N(N=O)C1c1ccccc1` (stereo not drawn), which GI50 (786-0) is on record?
**A.** 31.1 µM (inactive)

**Q.** What about the GI50 (ACHN) of the same compound?
**A.** 36.4 µM (inactive)

**Q.** And the GI50 (BT-549)?
**A.** 50.2 µM (inactive)

**Q.** What about the GI50 (HCT-116) of the same compound?
**A.** 28.5 µM (inactive)

**Q.** What about the GI50 (HCT-15) of the same compound?
**A.** 40.6 µM

**Q.** And the GI50 (HL-60)?
**A.** 32.1 µM (inactive)

**Q.** And the GI50 (HOP-92)?
**A.** 33.7 µM (inactive)

**Q.** And the GI50 (KM12)?
**A.** 31.8 µM (inactive)

**Q.** What about the GI50 (M14) of the same compound?
**A.** 40.7 µM (inactive)

**Q.** And the GI50 (MDA-MB-435)?
**A.** 26.7 µM (inactive)

**Q.** What about the GI50 (Malme-3M) of the same compound?
**A.** 23 µM (inactive)

**Q.** What about the GI50 (SF-268) of the same compound?
**A.** 51.8 µM (inactive)

**Q.** What about the GI50 (SF-295) of the same compound?
**A.** 30.5 µM (inactive)

**Q.** And the GI50 (SF-539)?
**A.** 57.8 µM (inactive)

**Q.** And the GI50 (SK-MEL-5)?
**A.** 30.2 µM (inactive)

**Q.** And the GI50 (SNB-75)?
**A.** 38.8 µM (inactive)

**Q.** And the GI50 (T47D)?
**A.** 39.6 µM (inactive)

**Q.** And the GI50 (U-251)?
**A.** 52.7 µM (inactive)

**Q.** Which results are given for `O=C1CCC[C@]2(CCC[C@@H](O)C2)N1`?
**A.** GI50 (786-0): > 100 µM (inactive); GI50 (ACHN): > 100 µM (inactive); GI50 (BT-549): > 100 µM (inactive); GI50 (HCT-116): > 100 µM (inactive); GI50 (HCT-15): > 100 µM; GI50 (HL-60): > 100 µM (inactive); GI50 (KM12): > 100 µM (inactive); GI50 (M14): > 100 µM (inactive); GI50 (Malme-3M): > 100 µM (inactive); GI50 (OVCAR-5): > 100 µM (inactive); GI50 (SF-268): > 100 µM (inactive); GI50 (SF-295): > 100 µM (inactive); GI50 (SF-539): > 100 µM (inactive); GI50 (SK-MEL-5): > 100 µM (inactive); GI50 (SNB-75): > 100 µM (inactive); GI50 (T47D): > 100 µM (inactive)

**Q.** `O=C(N/N=C(COc1ccccc1)\N=C\c1ccncc1)c1ccncc1` was tested. Which GI50 (786-0) did it give?
**A.** > 100 µM (inactive)

**Q.** What about the GI50 (ACHN) of the same compound?
**A.** > 100 µM (inactive)

**Q.** And the GI50 (BT-549)?
**A.** > 100 µM (inactive)

**Q.** What about the GI50 (HCT-116) of the same compound?
**A.** > 100 µM (inactive)

**Q.** And the GI50 (HCT-15)?
**A.** > 100 µM

**Q.** What about the GI50 (HL-60) of the same compound?
**A.** > 100 µM (inactive)

**Q.** And the GI50 (HOP-92)?
**A.** 68.7 µM (inactive)

**Q.** And the GI50 (KM12)?
**A.** > 100 µM (inactive)

**Q.** And the GI50 (M14)?
**A.** > 100 µM (inactive)

**Q.** What about the GI50 (MDA-MB-435) of the same compound?
**A.** > 100 µM (inactive)

**Q.** And the GI50 (OVCAR-5)?
**A.** > 100 µM (inactive)

**Q.** What about the GI50 (SF-268) of the same compound?
**A.** > 100 µM (inactive)

**Q.** What about the GI50 (SF-295) of the same compound?
**A.** > 100 µM (inactive)

**Q.** What about the GI50 (SF-539) of the same compound?
**A.** > 100 µM (inactive)

**Q.** What about the GI50 (SNB-75) of the same compound?
**A.** 34.5 µM (inactive)

**Q.** What about the GI50 (T47D) of the same compound?
**A.** > 100 µM (inactive)

**Q.** And the GI50 (U-251)?
**A.** > 100 µM (inactive)

**Q.** Which GI50 (786-0) does the source give for `Cc1cc(=O)oc2cc3c(cc12)Oc1ccccc1O3` here?
**A.** > 100 µM (inactive)

**Q.** And the GI50 (ACHN)?
**A.** > 100 µM (inactive)

**Q.** And the GI50 (HCT-116)?
**A.** 44.9 µM (inactive)

**Q.** What about the GI50 (HCT-15) of the same compound?
**A.** > 100 µM

**Q.** And the GI50 (HL-60)?
**A.** > 10 µM (inactive)

**Q.** What about the GI50 (HOP-92) of the same compound?
**A.** > 100 µM (inactive)

**Q.** What about the GI50 (KM12) of the same compound?
**A.** > 100 µM (inactive)

**Q.** And the GI50 (M14)?
**A.** > 100 µM (inactive)

**Q.** And the GI50 (Malme-3M)?
**A.** > 100 µM (inactive)

**Q.** What about the GI50 (OVCAR-5) of the same compound?
**A.** > 100 µM (inactive)

**Q.** And the GI50 (SF-268)?
**A.** 38.3 µM (inactive)

**Q.** And the GI50 (SF-295)?
**A.** 43.5 µM (inactive)

**Q.** And the GI50 (SF-539)?
**A.** 18.1 µM (inactive)

**Q.** And the GI50 (SK-MEL-5)?
**A.** > 100 µM (inactive)

**Q.** What about the GI50 (SNB-75) of the same compound?
**A.** 21.1 µM (inactive)

**Q.** And the GI50 (SR)?
**A.** > 100 µM (inactive)

**Q.** And the GI50 (U-251)?
**A.** 45.1 µM (inactive)

**Q.** For `COC(=O)C1Cc2c([nH]c3ccccc23)-c2[nH]c3ccccc3c2CC(NC(C)=O)C(=O)NCC(=O)N1` (stereo not drawn), which GI50 (786-0) is on record?
**A.** > 100 µM (inactive)

**Q.** And the GI50 (ACHN)?
**A.** > 100 µM (inactive)

**Q.** And the GI50 (HCT-116)?
**A.** > 100 µM (inactive)

**Q.** And the GI50 (HCT-15)?
**A.** > 100 µM

**Q.** What about the GI50 (HOP-92) of the same compound?
**A.** 77.4 µM (inactive)

**Q.** What about the GI50 (KM12) of the same compound?
**A.** > 100 µM (inactive)

**Q.** And the GI50 (MDA-MB-435)?
**A.** > 100 µM (inactive)

**Q.** What about the GI50 (OVCAR-5) of the same compound?
**A.** > 100 µM (inactive)

**Q.** What about the GI50 (SF-268) of the same compound?
**A.** > 100 µM (inactive)

**Q.** What about the GI50 (SF-295) of the same compound?
**A.** > 100 µM (inactive)

**Q.** And the GI50 (SF-539)?
**A.** > 100 µM (inactive)

**Q.** What about the GI50 (SK-MEL-5) of the same compound?
**A.** > 100 µM (inactive)

**Q.** And the GI50 (SNB-75)?
**A.** > 100 µM (inactive)

**Q.** What about the GI50 (T47D) of the same compound?
**A.** > 100 µM (inactive)

**Q.** And the GI50 (U-251)?
**A.** > 100 µM (inactive)
